Experimental data from PMC10904284 (iScience, 2024).

Molecular target: CLso STP (Candidatus Liberibacter solanacearum, UniProt A0A094YYW1)
Assay type: binding

CLso STP, sequence (A0A094YYW1 1-207): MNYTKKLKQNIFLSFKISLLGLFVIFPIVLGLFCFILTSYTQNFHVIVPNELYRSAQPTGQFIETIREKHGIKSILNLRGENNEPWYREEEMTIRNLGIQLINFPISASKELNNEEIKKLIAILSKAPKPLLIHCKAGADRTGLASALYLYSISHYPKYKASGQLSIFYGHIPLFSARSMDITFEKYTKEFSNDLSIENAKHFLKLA

Glucose 6-phosphate [G6P]
Ka: 17.58 M⁻¹ s⁻¹
